Test results taken from publication PMC10298626 (International Journal of Molecular Sciences, 2023).
Marks after values point to notes of the source that are not given here.

Experiments:
in vitro = type: cell-based; conditions: mouse, RAW264.7 cells, then LPS (500 ng/mL) 20 h, read-out: Cell viability, Average (%); for viability at 22 h, 20 μM: 20 μM for 2 h; for viability at 22 h, 40 μM: 40 μM for 2 h; for viability at 22 h, 80 μM: 80 μM for 2 h
Protocol: To investigate the anti-inflammatory activity of coumarin derivatives, cell viability was analyzed by treating RAW264.7 cells with 23 types of coumarin derivatives at concentrations of 20, 40, and 80 μM for 2 h and with LPS for 20 h.
Mouse macrophage RAW264.7 cells were purchased from the Korea Cell Line Bank (Seoul, Republic of Korea) and cultured in Dulbecco’s Modified Eagle Medium (Corning, NY, USA) containing 10% fetal bovine serum and 1% penicillin/streptomycin at 37 °C and 5% CO2. The medium was changed every 2 days and subcultured when the cells grew > 80%.
EZ-Cytox cell viability assay kit (Dogen, Suwon, Republic of Korea) was used to measure cell viability according to the manufacturer’s instructions. RAW264.7 cells were seeded into a 96-well plate (1 × 10^5 cells/well) and treated with coumarin derivatives at concentrations of 20, 40, and 80 μM. After 2 h, the cells were treated with LPS (500 ng/mL) and cultured for 24 h in a 37 °C, 5% CO2 incubator. The culture supernatant was treated with 10% EZ-Cytox reagent, and a microplate reader was used to measure the absorbance at 450 nm.

[1] = system: LPS-stimulated RAW264.7 cells; assay: NO production (Griess reagent) in LPS-stimulated RAW264.7 cells; type: cell-based, Mouse; conditions: for NO production, Average / NO production, Average (μM): then LPS (500 ng/mL) 20 h, LPS alone 25.9, control 3.1; for Anti-inflammatory effect (inhibition of NO secretion), in words: 20, 40, and 80 μM, compared with LPS-only treatment
Protocol: A high concentration of NO promotes the synthesis of inflammatory mediators, leading to an inflammatory response, and has been reported to be a cause of various immune diseases. Therefore, this study was conducted to investigate the effect of coumarin derivatives on the production of NO induced by LPS stimulation in RAW264.7 cells. The cells were treated with coumarin derivatives at concentrations of 20, 40, and 80 μM for 2 h. Then, the cells were treated with LPS. After 20 h, the culture supernatant was recovered, and the amount of NO was measured. […] The anti-inflammatory activity of these derivatives depended on the position of the substituted group rather than the electron density of the substituted group.
The Griess reagent was used to measure NO production. RAW264.7 cells were seeded into a 96-well plate and cultured for 24 h. The cells were treated with 20, 40, and 80 μM of coumarin derivatives, cultured for 2 h, and then cultured with LPS (500 ng/mL) for 20 h. The same amount of cell supernatant and Griess reagent were used for the reaction, and absorbance was measured at 540 nm.

Compound | viability at 22 h, 20 μM (in vitro) [%] | viability at 22 h, 40 μM (in vitro) [%] | viability at 22 h, 80 μM (in vitro) [%] | NO production, Average ([1]; 20 μM for 2 h) [µM] | NO production, Average ([1]; 40 μM for 2 h) [µM] | NO production, Average ([1]; 80 μM for 2 h) [µM] | Anti-inflammatory effect (inhibition of NO secretion), in words [1] | NO production, Average (μM) ([1]; 80 μM for 2 h) | NO production, Average (μM) ([1]; 40 μM for 2 h)
N#CC1=C(N)Oc2c(c(=O)oc3ccccc23)C1c1ccc(F)cc1 (centres unmarked) [Coumarin derivative 3] | 95.4 | 101 | 110 | 27.60 | 28.86 | 22.84 |  |  | 
N#CC1=C(N)Oc2c(c(=O)oc3ccccc23)C1c1ccccc1Br (centres unmarked) [Coumarin derivative 18] | 129 | 130 | 138 | 28.03 | 27.87 | 25.95 | almost no anti-inflammatory effect |  | 
N#CC1=C(N)Oc2c(c(=O)oc3ccccc23)C1c1ccc(C#N)cc1 (centres unmarked) [Coumarin derivative 22] | 120 | 122 | 114 | 31.41 | 28.84 | 22.89 | weak anti-inflammatory effects at high concentrations |  | 
N#CC1=C(N)Oc2c(c(=O)oc3ccccc23)C1c1cccc(Br)c1 (centres unmarked) [Coumarin derivative 19] | 117 | 119 | 120 | 27.07 | 17.76 |  | inhibited NO secretion in a concentration-dependent manner | 10.05 *** μM | 
COc1ccc(C2C(C#N)=C(N)Oc3c2c(=O)oc2ccccc32)cc1 (centres unmarked) [Coumarin derivative 17] | 122 | 122 | 137 | 28.68 | 26.11 |  | weak anti-inflammatory effects at high concentrations | 20.16 ** μM | 
N#CC1=C(N)Oc2c(c(=O)oc3ccccc23)C1c1ccccc1F (centres unmarked) [Coumarin derivative 1] | 90.4 | 96 | 109 | 29.50 | 29.82 | 28.71 | almost no anti-inflammatory effect |  | 
N#CC1=C(N)Oc2c(c(=O)oc3ccccc23)C1c1ccc(Cl)cc1 (centres unmarked) [Coumarin derivative 8] | 103 | 107 | 93.5 | 32.19 | 24.11 |  |  | 10.64 *** μM | 
Cc1ccc(C2C(C#N)=C(N)Oc3c2c(=O)oc2ccccc32)cc1 (centres unmarked) [Coumarin derivative 11] | 113 | 108 | 122 | 24.80 | 26.47 | 26.19 |  |  | 
N#CC1=C(N)Oc2c(c(=O)oc3ccccc23)C1c1ccc(Br)cc1 (centres unmarked) [Coumarin derivative 20] | 114 | 124 | 135 | 31.89 | 30.12 |  |  | 19.52 ** μM | 
COc1ccccc1C1C(C#N)=C(N)Oc2c1c(=O)oc1ccccc21 (centres unmarked) [Coumarin derivative 15] | 109 | 112 | 114 | 26.33 | 22.71 |  | showed anti-inflammatory effects | 19.37 ** μM | 
N#CC1=C(N)Oc2c(c(=O)oc3ccccc23)C1c1ccccc1Cl (centres unmarked) [Coumarin derivative 7] | 106 | 121 | 124 | 32.83 | 29.66 | 27.60 |  |  | 
Cc1cccc(C2C(C#N)=C(N)Oc3c2c(=O)oc2ccccc32)c1 (centres unmarked) [Coumarin derivative 10] | 111 | 113 | 104 | 24.24 |  |  | inhibited NO secretion in a concentration-dependent manner | 9.21 *** μM | 20.34 ** μM
N#CC1=C(N)Oc2c(c(=O)oc3ccccc23)C1c1ccccc1OC(F)(F)F (centres unmarked) [Coumarin derivative 12] | 99.2 | 102 | 106 | 16.58 |  |  | showed anti-inflammatory effects | 17.98 *** μM | 17.28 *** μM
N#CC1=C(N)Oc2c(c(=O)oc3ccccc23)C1c1ccc(OC(F)(F)F)cc1 (centres unmarked) [Coumarin derivative 14] | 110 | 95.8 | 102 | 27.72 | 24.52 |  | weak anti-inflammatory effects at high concentrations | 16.31 *** μM | 
N#CC1=C(N)Oc2c(c(=O)oc3ccccc23)C1c1cccc(C(F)(F)F)c1 (centres unmarked) [Coumarin derivative 5] | 86.8 | 110 | 113 | 30.77 | 28.71 | 25.38 | almost no anti-inflammatory effects |  | 
N#CC1=C(N)Oc2c(c(=O)oc3ccccc23)C1c1cccc(OC(F)(F)F)c1 (centres unmarked) [Coumarin derivative 13] | 114 | 118 | 112 | 27.17 | 26.33 | 24.94 | almost no anti-inflammatory effects |  | 
Cc1ccccc1C1C(C#N)=C(N)Oc2c1c(=O)oc1ccccc21 (centres unmarked) [Coumarin derivative 9] | 118 | 111 | 112 | 23.27 | 24.10 | 21.32 | almost no anti-inflammatory effect |  | 
N#CC1=C(N)Oc2c(c(=O)oc3ccccc23)C1c1ccccc1 (centres unmarked) [Coumarin derivative 23] | 119 | 118 | 117 | 30.77 | 29.80 | 27.39 |  |  | 
N#CC1=C(N)Oc2c(c(=O)oc3ccccc23)C1c1ccccc1C(F)(F)F (centres unmarked) [Coumarin derivative 4] | 79.9 | 91.2 | 88.7 | 15.71 |  |  |  | 18.09 *** μM | 17.45 *** μM
N#CC1=C(N)Oc2c(c(=O)oc3ccccc23)C1c1ccc(C(F)(F)F)cc1 (centres unmarked) [Coumarin derivative 6] | 98.7 | 111 | 111 | 30.92 | 26.49 |  | weak anti-inflammatory effects at high concentrations | 16.82 *** μM | 
N#CC1=C(N)Oc2c(c(=O)oc3ccccc23)C1c1cccc(C#N)c1 (centres unmarked) [Coumarin derivative 21] | 131 | 122 | 102 | 28.68 | 22.73 |  | weak anti-inflammatory effects | 11.97 *** μM | 
